In patent US10519099B2, “Cystobactamides” (priority 2014, dated 2019):
In brackets after ≈: the same amount, converted by molar mass.

Columns and labels:
[1] = test system: CHO-K1 (Chinese hamster ovary cell line); assay: Cytotoxicity (MTT), CHO-K1 cell line; type: cell-based; settings: 5 d incubation
Method: CHO-K1 cells were obtained from the DSMZ and were cultured under conditions recommended by the depositor. Cells were seeded at 6×10^3 cells/well of 96-well plates in 180 μl complete medium and treated with compounds in serial dilution after 2 h of equilibration. Each sample was tested in duplicate as well as the internal DMSO control. After 5 d incubation, 20 μl of 5 mg/ml MTT (thiazolyl blue tetrazolium bromide) in PBS was added per well and it was further incubated for 2 h at 37° C. The medium was then discarded and cells were washed with 100 μl PBS before adding 100 μl 2-propanol/10 N HCl (250:1) in order to dissolve formazan granules. The absorbance at 570 nm was measured using a microplate reader (Tecan Infinite M200Pro), and cell viability was expressed as percentage relative to the respective […] control.

[2] = test system: E. coli WT-III [marRΔ74bp]; assay: MIC microdilution, E. coli WT-III [marRΔ74bp]; type: cell-based, Escherichia coli
Method: (§1) Indicator strains used in susceptibility assays were either part of our strain collection or purchased from the German Collection of Microorgansims and Cell Cultures (DSMZ) or from the American Type Culture Collection (ATCC). E. coli strain WT and corresponding E. coli mutants were kindly provided by Prof. Dr. P. Heisig, Pharmaceutical Biology and Microbiology, University of Hamburg. E. coli strains JW0401-1 (WT) and Δtsx were obtained from the CGSC collection.
(§2) MIC values were determined in standardized microdilution assays. Overnight cultures were diluted in the appropriate growth medium to achieve an inoculum of 10^4-10^6 cfu/mL. Yeasts were grown in Myc medium (1% phytone peptone, 1% glucose, 50 mM HEPES, pH 7.0), S. pneumonia and Enterococcus spp. in tryptic soy broth (TSB: 1.7% peptone casein, 0.3% peptone soymeal, 0.25% glucose, 0.5% NaCl, 0.25% K2HPO4; pH 7.3); M. smegmatis in Middlebrook 7H9 medium supplemented with 10% Middlebrook ADC enrichment and 2 ml/I glycerol). All other listed bacteria were grown in Müller-Hinton broth (0.2% beef infusion solids, 1.75% casein hydrolysate, 0.15% starch, pH 7.4). Cystobactamides and reference drugs were added directly to the cultures in sterile 96-well plates as duplicates and serial dilutions were prepared. Microorganisms were grown on a microplate shaker (750 rpm, 30-37° C., 18-48 h), except S. pneumonia, which was grown at non-shaking conditions (37° C., 5% CO2, 18 h). Growth inhibition was assessed by visual inspection and the MIC was defined as the lowest concentration of compound that inhibited visible growth.

[3] = test system: Pseudomonas aeruginosa DSM-24599; assay: MIC microdilution, P. aeruginosa DSM-24599; type: cell-based; settings: larger panel
Method: as §1, §2

[4] = test system: P. aeruginosa DSM-24600 (ESBL); assay: MIC microdilution, P. aeruginosa DSM-24600 (ESBL); type: cell-based, Pseudomonas aeruginosa
Method: as §1, §2

[5] = test system: E. coli WT-3 [gyrA(S83L, D87G)]; assay: MIC microdilution, E. coli WT-3 [gyrA(S83L, D87G)]; type: cell-based, Escherichia coli
Method: as §1, §2

P. aeruginosa gyrase = target: T1, P. aeruginosa gyrase (Pseudomonas aeruginosa, UniProt P48372+Q9I7C2); assay: P. aeruginosa gyrase DNA supercoiling assay; type: biochemical; settings: read-out: IC50 Pa gyrase (sc)
T1 construct: purchased Inspiralis, Norwich, UK
Method: (§3) To test the anti-gyrase activity of cystobactamides, commercial E. coli and P. aeruginosa gyrase supercoiling kits (Inspiralis, Norwich, UK) were used. For standard reactions 0.5 μg relaxed plasmid were mixed with 1 unit gyrase in 1× reaction buffer (see kit manual) and incubated for 30 min at 37° C. The reactions were quenched by the addition of DNA gel loading buffer containing 10% (w/v) SDS. The samples were separated on 1% (w/v) agarose gels and DNA was visualized using EtBr. All natural products stock solutions and dilutions were prepared in 100% DMSO and added to the supercoiling reactions giving a final DMSO concentration of 2% (v/v).

[6] = test system: Proteus vulgaris DSM-2140; assay: MIC microdilution, P. vulgaris DSM-2140; type: cell-based
Method: as §1, §2

[7] = test system: Pseudomonas aeruginosa PA14; assay: MIC microdilution, P. aeruginosa PA14; type: cell-based; settings: larger panel
Method: as §1, §2

[8] = test system: Staphylococcus epidermidis DSM-28765; assay: MIC microdilution, Staphylococcus epidermidis DSM-28765; type: cell-based; settings: larger panel
Method: as §1, §2

[9] = test system: Pseudomonas aeruginosa DSM-46316 (ESBL); assay: MIC microdilution, P. aeruginosa DSM-46316 (ESBL); type: cell-based; settings: larger panel
Method: as §1, §2

[10] = test system: E. coli DSM-26863 (tolC3); assay: MIC microdilution, E. coli DSM-26863 (tolC3); type: cell-based, Escherichia coli
Method: as §1, §2

[11] = test system: Serratia marcescens DSM-30121; assay: MIC microdilution, Serratia marcescens DSM-30121; type: cell-based; settings: larger panel
Method: as §1, §2

E. coli DSM-1116 = assay: MIC microdilution, E. coli DSM-1116; type: cell-based, Escherichia coli
Method: as §1, §2

E. coli JW0401-1 (WT) = assay: MIC microdilution, E. coli JW0401-1 (WT); type: cell-based, Escherichia coli; settings: Gram-negative set
Method: as §1
as §2, with “Cystobactamides and reference drugs were added directly to the cultures in sterile 96-well plates as duplicates and serial dilutions were prepared. Microorganisms were grown on a microplate shaker (750 rpm, 30-37° C., 18-48 h), except S. pneumonia, which was grown at non-shaking conditions (37° C., 5% CO2, 18 h).” left out

[12] = test system: Pseudomonas aeruginosa ATCC27853; assay: MIC microdilution, P. aeruginosa ATCC27853; type: cell-based; settings: larger panel
Method: as §1, §2

[13] = test system: Escherichia coli (TolC-deficient); assay: MIC microdilution, E. coli (TolC-deficient); type: cell-based; settings: larger panel
Method: as §1
as §2, with “Cystobactamides and reference drugs were added directly to the cultures in sterile 96-well plates as duplicates and serial dilutions were prepared. Microorganisms were grown on a microplate shaker (750 rpm, 30-37° C., 18-48 h), except S. pneumonia, which was grown at non-shaking conditions (37° C., 5% CO2, 18 h).” left out

[14] = test system: Acinetobacter baumannii DSM-30008; assay: MIC microdilution, A. baumannii DSM-30008; type: cell-based
Method: as §1, §2

E. coli WT = assay: MIC microdilution, E. coli WT; type: cell-based, Escherichia coli
Method: as §1, §2

[15] = test system: Enterococcus faecium DSM-20477; assay: MIC microdilution, Enterococcus faecium DSM-20477; type: cell-based; settings: larger panel
Method: as §1, §2

E. coli gyrase = target: T2, E. coli gyrase (Escherichia coli, UniProt P0AES4+P0AES6); assay: E. coli gyrase DNA supercoiling assay; type: biochemical; settings: read-out: IC50 Ec gyrase (sc)
T2 construct: purchased Inspiralis, Norwich, UK
Method: as §3

E. coli Δtsx = assay: MIC microdilution, E. coli Δtsx; type: cell-based, Escherichia coli; settings: Gram-negative set
Method: as §1
as §2, with “Cystobactamides and reference drugs were added directly to the cultures in sterile 96-well plates as duplicates and serial dilutions were prepared. Microorganisms were grown on a microplate shaker (750 rpm, 30-37° C., 18-48 h), except S. pneumonia, which was grown at non-shaking conditions (37° C., 5% CO2, 18 h).” left out

[16] = test system: Enterobacter cloacae DSM-30054; assay: MIC microdilution, Enterobacter cloacae DSM-30054; type: cell-based; settings: larger panel
Method: Dr. P. Heisig, Pharmaceutical Biology and Microbiology, University of Hamburg.
Overnight cultures were diluted in the appropriate growth medium to achieve an inoculum of 10^4-10^6 cfu/mL. […] Cystobactamides and reference drugs were added directly to the cultures in sterile 96-well plates as duplicates and serial dilutions were prepared. Microorganisms were grown on a microplate shaker (750 rpm, 30-37° C., 18-48 h), except S. pneumonia, which was grown at non-shaking conditions (37° C., 5% CO2, 18 h). Growth inhibition was assessed by visual inspection and the MIC was defined as the lowest concentration of compound that inhibited visible growth.

[17] = test system: Citrobacter freundii DSM-30039; assay: MIC microdilution, C. freundii DSM-30039; type: cell-based
Method: as §1, §2

CO[C@@H](C(N)=O)[C@H](NC(=O)c1ccc(NC(=O)c2ccc([N+](=O)[O-])cc2)cc1)C(=O)Nc1ccc(C(=O)Nc2ccc(C(=O)Nc3ccc(C(=O)O)cc3)c(O)c2OC(C)C)cc1 [Cys 861-2]
IC50 [1]: > 100000 nM | MIC E. coli WT-III [marRΔ74bp] ([2]; Gram-negative set): 0.5 µg/mL (≈ 0.58 µM) | MIC Escherichia coli WTIII (marRΔ74bp) ([2]; larger panel): 0.5 µg/mL (≈ 0.58 µM) | MIC Pseudomonas aeruginosa DSM-24599 [3]: 2 µg/mL (≈ 2.32 µM) | MIC P. aeruginosa DSM-24600 (ESBL) ([4]; Gram-negative set): 1 µg/mL (≈ 1.16 µM) | MIC Pseudomonas aeruginosa DSM-24600 (ESBL) ([4]; larger panel): 1 µg/mL (≈ 1.16 µM) | MIC E. coli WT-3 [gyrA(S83L, D87G)] ([5]; Gram-negative set): 0.5 µg/mL (≈ 0.58 µM) | MIC Escherichia coli WT-3 [gyrA(S83L, D87G)] ([5]; larger panel): 0.5 µg/mL (≈ 0.58 µM) | IC50 (P. aeruginosa gyrase): 180 nM | MIC P. vulgaris DSM-2140 ([6]; Gram-negative set): 0.25 µg/mL (≈ 0.29 µM) | MIC Proteus vulgaris DSM-2140 ([6]; larger panel): 0.25 µg/mL (≈ 0.29 µM) | MIC Pseudomonas aeruginosa PA14 [7]: 2 µg/mL (≈ 2.32 µM) | MIC Staphylococcus epidermidis DSM-28765 [8]: 0.5 µg/mL (≈ 0.58 µM) | MIC Pseudomonas aeruginosa DSM-46316 (ESBL) [9]: 2 µg/mL (≈ 2.32 µM) | MIC E. coli DSM-26863 (tolC3) ([10]; Gram-negative set): 0.06 µg/mL (≈ 0.0696 µM) | MIC Escherichia coli DSM-26863 (tolC3) ([10]; larger panel): 0.4 µg/mL (≈ 0.464 µM) | MIC Serratia marcescens DSM-30121 [11]: 64 µg/mL (≈ 74.3 µM) | MIC E. coli DSM-1116 (E. coli DSM-1116; Gram-negative set): 0.13 µg/mL (≈ 0.151 µM) | MIC Escherichia coli DSM-1116 (E. coli DSM-1116; larger panel): 0.4 µg/mL (≈ 0.464 µM) | MIC E. coli JW0401-1 (WT) (E. coli JW0401-1 (WT)): 0.25 µg/mL (≈ 0.29 µM) | MIC Pseudomonas aeruginosa ATCC27853 [12]: 4 µg/mL (≈ 4.64 µM) | MIC Escherichia coli (TolC-deficient) [13]: 0.06 µg/mL (≈ 0.0696 µM) | MIC A. baumannii DSM-30008 ([14]; Gram-negative set): 0.5 µg/mL (≈ 0.58 µM) | MIC Acinetobacter baumannii DSM-30008 ([14]; larger panel): 0.5 µg/mL (≈ 0.58 µM) | MIC E. coli WT (E. coli WT; Gram-negative set): 0.13 µg/mL (≈ 0.151 µM) | MIC Escherichia coli WT (E. coli WT; larger panel): 0.125 µg/mL (≈ 0.145 µM) | MIC Enterococcus faecium DSM-20477 [15]: 0.5 µg/mL (≈ 0.58 µM) | IC50 (E. coli gyrase): 280 nM | MIC E. coli Δtsx (E. coli Δtsx): 0.25 µg/mL (≈ 0.29 µM) | MIC Enterobacter cloacae DSM-30054 [16]: 64 µg/mL (≈ 74.3 µM) | genotoxic effect, micronucleus formation (CHO-K1 cell line): No detectable genotoxic effect | MIC C. freundii DSM-30039 ([17]; Gram-negative set): 0.06 µg/mL (≈ 0.0696 µM) | MIC Citrobacter freundii DSM-30039 ([17]; larger panel): 0.06 µg/mL (≈ 0.0696 µM)
